Laboratory results: US11066363B2, “Substituted 6,11-dihydro-5H-benzo[B]carbazoles as inhibitors of ALK and SRPK” (Dana-Farber Cancer Institute, Inc., priority 2015, dated 2021)
Where two headings read alike, the source gives them in different places.

Tests used:
[1] = biological target: EML4-ALK^WT transformed Ba/F3 cells (Homo sapiens, UniProt Q9UM73); test: Ba/F3 dose escalation MTS viability assay; details: read-out: IC50 wt, 72 hours
[2] = test system: EML4-ALK wt transformed Ba/F3 cells; test: Ba/F3 single point inhibition assay (MTS); format: cell-based; details: single dose 1 μM, 72 hours
[3] = biological target: EML4-ALK C1156Y transformed Ba/F3 cells (Homo sapiens, UniProt Q9UM73, C1156Y, cells depend on it); test: Ba/F3 dose escalation MTS viability assay; format: cell-based; details: 72 hours
[4] = biological target: EML4-ALK G1202R transformed Ba/F3 cells (Homo sapiens, UniProt Q9UM73, G1202R, cells depend on it); test: Ba/F3 dose escalation MTS viability assay; format: cell-based; details: 72 hours
[5] = test system: EML4-ALK^G1202R transformed Ba/F3 cells; test: Ba/F3 single point inhibition assay (MTS); format: cell-based; details: single dose 1 μM, 72 hours
[6] = biological target: EML4-ALK L1152R transformed Ba/F3 cells (Homo sapiens, UniProt Q9UM73, L1152R, cells depend on it); test: Ba/F3 dose escalation MTS viability assay; format: cell-based; details: 72 hours
SRPK1 = SRPK1 (Homo sapiens (Human), UniProt Q96SB4); test: SRPK1 inhibitory activity; format: biochemical
[7] = biological target: EML4-ALK G1269A transformed Ba/F3 cells (Homo sapiens, UniProt Q9UM73, G1269A, cells depend on it); test: Ba/F3 dose escalation MTS viability assay; format: cell-based; details: 72 hours
[8] = biological target: EML4-ALK S1206Y transformed Ba/F3 cells (Homo sapiens, UniProt Q9UM73, S1206Y, cells depend on it); test: Ba/F3 dose escalation MTS viability assay; format: cell-based; details: 72 hours
[9] = biological target: EML4-ALK L1196M transformed Ba/F3 cells (Homo sapiens, UniProt Q9UM73, L1196M, cells depend on it); test: Ba/F3 dose escalation MTS viability assay; details: read-out: IC50 L1196M, 72 hours
SRPK2 = SRPK2 (Homo sapiens (Human), UniProt P78362); test: SRPK2 inhibitory activity; format: biochemical
panel of 456 kinases = test: KINOMESCAN kinase selectivity profiling; format: binding; details: screened at 1 μM
[10] = mouse, in vivo, iv, 2 mg/kg, 8 h
[11] = test system: DFCI76 (L1152R) cells (NSCLC); format: cell-based; details: read-out: IC50 Tumor Cell Line DFCI76 (L1152R)
H3122 cells (NSCLC) = format: cell-based; details: Homo sapiens
[12] = biological target: del19EGFR transduced Ba/F3 cells (Homo sapiens, UniProt P00533, cells depend on it, form not given); test: Ba/F3 proliferation assay; format: cell-based; details: read-out: IC50 Ba/F3 del19EGFR; Table 6
[13] = biological target: CD74-ROS transduced Ba/F3 cells (Homo sapiens, UniProt P08922); test: Ba/F3 proliferation assay; format: cell-based; details: read-out: IC50 Ba/F3 CD74-ROS; Table 6
[14] = test system: mutant EGFR PC9 cell line; details: in words

Row | SMILES | IC50 (SRPK1) | IC50 (SRPK2) | IC50 [1] | Percent viability of untreated control, wt [2] | IC50 [3] | IC50 [4] | Percent viability of untreated control, G1202R [5] | IC50 [6] | IC50 [7] | IC50 [8] | IC50 [9] | also measured
1 | CCc1cc2c(cc1-c1cnn[nH]1)C(C)(C)c1[nH]c3cc(C#N)ccc3c1C2=O [Compound 13, 9-ethyl-6,6-dimethyl-11-oxo-8-(1H-1,2,3-triazol-5-yl)-6,11-dihydro-5H-benzo[b]carbazole-3-carbonitrile] | 0.884 nM | 7.46 nM | 115 nM | 6% | 177 nM | 214 nM | 7% | 345 nM | 256 nM | 1610 nM | 629 nM | –
2 | CCc1cc2c(cc1-c1cnn(CCCN(C)C)c1)C(C)(C)c1[nH]c3cc(C#N)ccc3c1C2=O [Compound 32, 8-(1-(3-(dimethylamino)propyl)-1H-pyrazol-4-yl)-9-ethyl-6,6-dimethyl-11-oxo-6,11-dihydro-5H-benzo[b]carbazole-3-carbonitrile] | – | – | – | 0% | – | – | 0% | – | – | – | – | KINOMESCAN interactions mapped (panel of 456 kinases): 39; Conc. [10]: 80 nM
3 | CCc1cc2c(cc1N1CCC(N3CCOCC3)CC1)C(C)(C)c1[nH]c3cc(C#N)ccc3c1C2=O [Alectinib] | 11 nM | 28.2 nM | – | – | – | – | – | – | – | – | – | IC50 [11]: 26 ± 27 nM; IC50 (H3122 cells (NSCLC); NCI-H3122, read-out: IC50 Tumor Cell Line H3122): 7 ± 4 nM
4 | Cc1cc(Nc2ncc(Cl)c(Nc3ccccc3S(=O)(=O)C(C)C)n2)c(OC(C)C)cc1C1CCNCC1 [Ceritinib] | – | – | – | – | – | – | – | – | – | – | – | IC50 (H3122 cells (NSCLC); NCI-H3122, Table 6, read-out: IC50 Tumor Cell Line H3122): 13 ± 5 nM
5 | CCc1cc2c(cc1-c1cnn(CC(=O)N(C)C)c1)C(C)(C)c1[nH]c3cc(C#N)ccc3c1C2=O [Compound 6, 2-(4-(3-cyano-9-ethyl-6,6-dimethyl-11-oxo-6,11-dihydro-5H-benzo[b]carbazol-8-yl)-1H-pyrazol-1-yl)-N,N-dimethylacetamide] | – | – | – | – | – | – | – | – | – | – | – | IC50 [12]: 281 ± 1 nM; IC50 [13]: 678 ± 109 nM; inhibition of mutant EGFR PC9 cell line [14]: not inhibited

Further lines, with some results ahead:

Row | IC50 (SRPK1) | IC50 (SRPK2) | SMILES | IC50 [1] | Percent viability of untreated control, wt [2] | IC50 [3] | IC50 [4] | Percent viability of untreated control, G1202R [5] | IC50 [6] | IC50 [7] | IC50 [8] | IC50 [9] | also measured
6 | 1.91 nM | 6.6 nM | CCc1cc2c(cc1-c1cnn(CCN(C)C)c1)C(C)(C)c1[nH]c3cc(C#N)ccc3c1C2=O [Compound 31, 8-(1-(2-(dimethylamino)ethyl)-1H-pyrazol-4-yl)-9-ethyl-6,6-dimethyl-11-oxo-6,11-dihydro-5H-benzo[b]carbazole-3-carbonitrile] | 2 nM | 1% | 24 nM | 8 nM | 1% | 548 nM | 11 nM | 6 nM | 80 nM | –
7 | 5.09 nM | 14.5 nM | CCc1cc2c(cc1-c1cnoc1)C(C)(C)c1[nH]c3cc(C#N)ccc3c1C2=O [Compound 10, 9-ethyl-8-(isoxazol-4-yl)-6,6-dimethyl-11-oxo-6,11-dihydro-5H-benzo[b]carbazole-3-carbonitrile] | 59 nM | 2% | 116 nM | 80 nM | 3% | 345 nM | 186 nM | 728 nM | 634 nM | –
